Experimental data taken from patent publication US6433001B1, “1H-indole-3-glyoxylamide sPLA2 inhibitors” (Eli Lilly and Company, priority 1994, dated 2002).
Counter-ions that a name gives are not always drawn. Like-named read-outs stand apart in the source and are kept apart here.

How the values were obtained:
[1] = target: T1, Human Secreted Phospholipase A2 (Homo sapiens, UniProt P14555); experiment: chromogenic assay for inhibitors of recombinant human secreted phospholipase A2; type: biochemical
T1 sequence (P14555 21-144): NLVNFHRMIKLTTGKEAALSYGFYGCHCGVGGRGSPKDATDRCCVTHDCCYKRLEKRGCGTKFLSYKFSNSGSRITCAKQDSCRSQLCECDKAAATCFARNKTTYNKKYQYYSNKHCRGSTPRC
Protocol: The following chromogenic assay procedure was used to identify and evaluate inhibitors of recombinant human secreted phospholipase A2. The assay described herein has been adapted for high volume screening using 96 well microtiter plates.
Adjust pH to 4.5 with acetic acid
DTNB—5,5′-dithiobis-2-nitrobenzoic acid
RACEMIC DIHEPTANOYL THIO—PC
racemic 1,2-bis(heptanoylthio)-1,2-dideoxy-sn-glycero-3-phosphorylcholine
TRITON X-100™ prepare at 6.249 mg/ml in reaction buffer to equal […].
A measured volume of racemic dipheptanoyl thio PC supplied in chloroform at a concentration of 100 mg/ml is taken to dryness and redissolved in 10 millimolar TRITON X-100™ nonionic detergent aqueous solution.
Reaction Buffer is added to the solution, then DTNB to give the Reaction Mixture.
The reaction mixture thus obtained contains 1 mM diheptanoly thio-PC substrate, 0.29 mm Triton X-100™ detergent, and 0.12 mm DTMB in a buffered aqueous solution at pH 7.5.
1. Add 0.2 ml reaction mixture to all wells;
2. Add 10 ul test compound (or solvent blank) to appropriate wells, mix 20 seconds;
3. Add 50 nanograms of sPLA2 (10 microliters) to appropriate wells;
4. Incubate plate at 40° C. for 30 minutes;
5. Read absorbance of wells at 405 nanometers with an automatic plate reader.
All compounds were tested in triplicate. […] Lack of color development at 405 nanometers evidenced inhibition. […] In all cases, % inhibition measured at 405 nanometers generated by enzyme reactions containing inhibitors relative to the uninhibited control reactions was determined. Each sample was titrated in triplicate and result values were averaged for plotting and calculation of IC50 values.

[2] = target: T1, Human Secreted Phospholipase A2; experiment: guinea pig lung pleural strip tissue test, sPLA2-induced contraction; type: cell-based; details: guinea pig lung pleural strips; compound added 30 min. prior to sPLA2 concentration-response curves; pA2 interpreted as apparent KB; read-out: Tissue test secreted PLA2 Apparent KB
Description: Male Hartley strain guinea pigs (500-700 g) were killed by cervical dislocation and their heart and lungs removed intact and placed in aerated (95% O2:5% CO2) Krebs buffer. Dorsal pleural strips (4×1×25 mm) were dissected from intact parenchymal segments (8×4×25 mm) cut parallel to the outer edge of the lower lung lobes. Two adjacent pleural strips, obtained from a single lobe and representing a single tissue sample, were tied at either end and independently attached to a metal support rod. One rod was attached to a Grass force-displacement transducer (Model FTO3C, product of Grass Medical Instruments Co., Quincy, Mass., USA). […] All tissues were placed in 10 ml jacketed tissue baths maintained at 37° C. The tissue baths were continuously aerated and contained a modified Krebs solution of the following composition (millimolar) NaCl, 118.2; KCl, 4.6; CaCl2.2H2O, 2.5; MgSO4.7H2O, 1.2; NaHCO3, 24.8; KH2PO4, 1.0; and dextrose 10.0. Pleural strips from the opposite lobes of the lung were used for paired experiments. […] The tissues were allowed to equilibrate for 45 min. as the bath fluid was changed periodically.
Initially tissues were challenged 3 times with KCl (40 mM) to test tissue viability and to obtain a consistent response. After recording the maximal response to KCl, the tissues were washed and allowed to return to baseline before the next challenge. Cumulative concentration-response curves were obtained from pleural strips by increasing the agonist concentration (sPLA2) in the tissue bath by half-log10 increments while the previous concentration remained in contact with the tissues (Ref.1, supra.) Agonist concentration was increased after reaching the plateau of the contraction elicited by the preceding concentration. One concentration-response curve was obtained from each tissue. To minimize variability between tissues obtained from different animals, contractile responses were expressed as a percentage of the maximal response obtained with the final KCl challenge. When studying the effects of various drugs on the contractile effects of sPLA2, the compounds and their respective vehicles were added to the tissues 30 min. prior to star ting the sPLA2 concentration-response curves.
Data from different experiments were pooled and presented as a percentage of the maximal KCl responses (mean±S.E.). […] 163, (Ref.2) The model includes four parameters: the maximum tissue response which was assumed the same for each curve, the ED50 for the control curve, the steepness of the curves, and the pA2, the concentration of antagonist that requires a two-fold increase in agonist to achieve an equivalent response. […] 164 (Ref. 2).
To estimate the drug-induced suppression of the maximal responses, siPLA2 responses (10 ug/ml) were determined in the absence and presence of drug, and percent suppression was calculated for each pair of tissues.

[3] = diheptanoyl thio-PC substrate, pH 7.5, 40° C. for 30 minutes, absorbance at 405 nanometers, read-out: Inhibition of human secreted PLA2 IC50 ± mean deviation (3-4 tests)

Row | SMILES | IC50 [1] [nM] | IC50 [1, 3] [nM] | further results
1 | NC(=O)C(=O)c1c(C2CC2)n(Cc2ccccc2)c2cccc(OCC(=O)O)c12 [Example 13, [[3-(2-Amino-1,2-dioxoethyl)-2-cyclopropyl-1-(phenylmethyl)-1H-indol-4-yl]oxy]acetic Acid] | 27.6 ± 13.1 | – | –
2 | Cc1c(C(=O)C(N)=O)c2c(OCC(=O)O)cccc2n1Cc1cccc2ccccc12 [Example 8, [[3-(2-Amino-1,2-dioxoethyl)-2-methyl-1-[(1-naphthalenyl)methyl]-1H-indol-4-yl]oxy]acetic Acid] | 32.8 ± 7.04 | – | –
3 | CCc1c(C(=O)C(N)=O)c2cc(OCCCC(=O)O)ccc2n1Cc1ccccc1 [Example 15] | – | 210 ± 60 | –
4 | CCc1c(C(=O)C(N)=O)c2c(OCC(=O)O)cccc2n1Cc1ccccc1-c1ccccc1 [Example 11, [[3-(2-Amino-1,2-dioxoethyl)-1-([1,1′-biphenyl]-2-ylmethyl)-2-ethyl-1H-indol-4-yl]oxy]acetic Acid] | 4.33 ± 2.31 | – | Kb [2]: 57 ± 11 nM
5 | CCc1c(C(=O)C(N)=O)c2c(NCC(=O)O)cccc2n1Cc1ccccc1 [Example 17, [[3-(Aminooxoacetyl)-2-ethyl-1-(phenylmethyl)-1H-indol-4-yl]amino]acetic Acid] | – | 1150 ± 120 | –
6 | Cc1c(C(=O)C(N)=O)c2c(OCC(=O)O)cccc2n1Cc1ccccc1 [Example 1, [[3-(2-Amino-1,2-dioxoethyl)-2-methyl-1-(phenylmethyl)-1H-indol-4-yl]oxy]acetic Acid] | 10.7 ± 5.51 | – | Kb [2]: 143 ± 67 nM
7 | Cc1c(C(=O)C(N)=O)c2c(OCC(=O)O)cccc2n1Cc1ccc(-c2ccccc2)cc1 [Example 5, [[3-(2-Amino-1,2-dioxoethyl)-1-([1,1′-biphenyl]-4-ylmethyl)-2-methyl-1H-indol-4-yl]oxy]acetic Acid] | 49 ± 11.5 | – | –
8 | Cc1c(C(=O)C(N)=O)c2c(OCC(=O)O)cccc2n1Cc1ccccc1-c1ccccc1 [3 (Na salt), [[3-(2-amino-1,2-dioxoethyl)-1-([1,1′-biphenyl]-2-ylmethyl)-2-methyl-1H-indol-4-yl]oxy]acetic acid, sodium salt] | – | – | Kb [2]: 67.6 ± 11.8 nM
9 | Cc1c(C(=O)C(N)=O)c2c(OCC(=O)O)cccc2n1Cc1ccccc1-c1ccccc1 [Example 3, [[3-(2-Amino-1,2-dioxoethyl)-1-([1,1′-biphenyl]-2-ylmethyl)-2-methyl-1H-indol-4-yl]oxy]acetic Acid] | 5.33 ± 1.15 | – | –
10 | Cc1c(C(=O)C(N)=O)c2c(OCC(=O)O)cccc2n1Cc1c(Cl)cccc1Cl [Example 6, [[3-(2-Amino-1,2-dioxoethyl)-1-[(2,6-dichlorophenyl)methyl]-2-methyl-1H-indol-4-yl]oxy]acetic Acid] | – | 6 ± 1 | –
11 | Cc1c(C(=O)C(N)=O)c2c(OC(C)C(=O)O)cccc2n1Cc1ccccc1 (racemic) [Example 2, dl-2-[[3-(2-Amino-1,2-dioxoethyl)-2-methyl-1-(phenylmethyl)-1H-indol-4-yl]oxy]propanoic Acid] | – | 9 ± 1.73 | –
12 | NC(=O)C(=O)c1c(C2CC2)n(Cc2ccccc2-c2ccccc2)c2cccc(OCC(=O)O)c12 [Example 14, [[3-(2-Amino-1,2-dioxoethyl)-1-([1,1′-biphenyl]-2-ylmethyl)-2-cyclopropyl-1H-indol-4-yl]oxy]acetic Acid] | 5.57 ± 2.89 | – | Kb [2]: 75 ± 9 nM
13 | CCc1c(C(=O)C(N)=O)c2c(OCC(=O)O)cccc2n1Cc1cccc(Cl)c1 [Example 10, [[3-(2-Amino-1,2-dioxoethyl)-1-[(3-chlorophenyl)methyl]-2-ethyl-1H-indol-4-yl]oxy]acetic Acid] | 6.67 ± 2.89 | – | –
14 | Cc1c(C(=O)C(N)=O)c2c(OCC(=O)O)cccc2n1Cc1cccc(-c2ccccc2)c1 [Example 4, [[3-(2-Amino-1,2-dioxoethyl)-1-([1,1′-biphenyl]-3-ylmethyl)-2-methyl-1H-indol-4-yl]oxy]acetic Acid] | 9.69 ± 1.14 | – | –
15 | Cc1c(C(=O)C(N)=O)c2c(OCC(=O)O)cccc2n1Cc1ccc(F)cc1 [Example 7, [[3-(2-Amino-1,2-dioxoethyl)-1-[4(-fluorophenyl)methyl]-2-methyl-1H-indol-4-yl]oxy]acetic Acid] | 6 ± 1 | – | –
16 | CCCc1c(C(=O)C(N)=O)c2c(OCC(=O)O)cccc2n1Cc1ccccc1-c1ccccc1 [Example 12, [[3-(2-amino-1,2-dioxoethyl)-1-([1,1′-biphenyl]-2-ylmethyl)-2-propyl-1H-indol-4-yl]oxy]acetic Acid] | – | 82.2 ± 18 | –
17 | NC(=O)C(=O)c1cn(Cc2ccccc2)c2ccc(OCCCC(=O)O)cc12 [Example 16, 4-[[3-(2-Amino-1,2-dioxoethyl)-1-(phenylmethyl)-H-indol-5-yl]oxy]butanoic Acid] | – | 62000 | activity in inhibiting sPLA2 (in words) ([1]; comment on Table I): much less active
18 | CCc1c(C(=O)C(N)=O)c2c(OCC(=O)O)cccc2n1Cc1cccc(Cl)c1 [10 (Na salt), [[3-(2-amino-1,2-dioxoethyl)1-[(3-chlorophenyl)methyl]-2-ethyl-1H-indol-4-yl]oxy]acetic acid, sodium salt] | – | – | Kb [2]: 110 ± 10 nM
